Source: patent publication US7884186B2, “Isotopically labeled trapping agent and method for identifying reactive metabolites” (Janssen Pharmaceutica NV, priority 2006, dated 2011)

Tested on: human liver microsomal preparations (cytochrome P450 enzyme preparations)
Assay: Reactive metabolite trapping with compound of formula (I) / (I-IS) in human liver microsomal incubation, neutral loss (129 Da) LC-MS/MS
Type: in vitro ADME
Details: 10 μM test compound, 1 mg/ml microsomal proteins, 1 mM 1:1 mixture of formula (I) and (I-IS), NADPH generating system, 60 min, 37° C.; neutral loss of 129 Da, doublet mass difference 8 Da
Description: All microsomal incubations described herein were performed at 37° C. in a water bath. The test compound was mixed with human liver microsomal preparations (cytochrome P450 enzyme preparations) in 50 mM potassium phosphate buffer (pH 7.4) supplemented with the non-isotopically labeled compound of formula (I) and the isotopically labeled compound of formula (I-S) that were pre-mixed at an equal molar ratio of 1:1. The resulting mixtures were pre-warmed at 37° C. for 5 min. To the reaction mixtures was then added the co-factor—NADPH generating system—(to initiate the reaction) to yield a final volume of 1000 μl.
The resulting reaction mixtures contained 10 μM test compounds, 1 mg/ml microsomal proteins, 1 mM mixture of non-isotopically labeled compound of formula (I) and isotopically labeled compound of formula (I-IS), 1.3 mM NADP^+, 3.3 mM glucose-6-phosphate, 0.4 U/ml glucose-6-phosphate dehydrogenase, 3.3 mM magnesium chloride.
After a 60 min incubation, the reactions were terminated by the addition of 150 μl of trichloroacetic acid (10%). The resulting mixtures were centrifuged at 10,000 g for 15 min at 4° C. to pellet the precipitated protein, and the supernatants were subjected to solid-phase extractions. Alternatively, the reaction mixtures were subjected to liquid-liquid extractions to recover the metabolites from supernatants.
MS analyses were performed on a Micromass (Manchester, UK) Quattro Micro triple quadrupole mass spectrometer. The ESI ion source was operated in the positive ion mode, and experimental parameters were set as follows: capillary voltage 3.2 kV, source temperature 120° C., desolvation temperature 300° C., sample cone voltage 26 V. Mass spectra collected in the neutral loss scanning mode were obtained by scanning over the range m/z 400-800 in 2.0 s.
For complete profiling of reactive metabolites, samples were first subjected to chromatographic separations with an Agilent 1100 HPLC system with an auto-sampler (Agilent Technologies, Palo Alto, Calif.), and eluents were introduced to the Quattro Micro triple quadrupole mass spectrometer operated in the neutral loss scanning mode. An Agilent Zorbax SB C18 column (2.1×50 mm) was used for the chromatographic separation. […] At 7 min, the column was flushed with 95% acetonitrile for 2 min before re-equilibration at initial conditions. LC-MS/MS analyses were carried out on 10-μl aliquots of cleaned samples. Data were processed using the Masslynx version 4.0 software from Micromass. After a positive peak was detected, MS/MS spectra were subsequently obtained to further confirm the structure of the adduct(s). To acquire CID (Collision Induced Dissociation) spectra, the mass spectrometer was operated in the multiple reaction monitoring (MRM) mode.

SMILES	components (reactive metabolite adducts) showing the characteristic isotopic doublet in the neutral loss scan
c1coc(-c2cccs2)c1 [2-(2-Thienyl)-furan]	showed the characteristic isotopic doublet
Cc1ccco1 [2-Methylfuran]	Two isomeric adducts
O=C(O)Cc1ccccc1Nc1c(Cl)cccc1Cl [Diclofenac]	two of the components showed the expected isotope doublet
c1ccoc1 [Furan]	displayed the characteristic isotopic doublet
Cc1coc2c1CCC(C)C2 (stereo not drawn) [Menthofuran]	One component
COc1ccc2[nH]c([S+]([O-])Cc3ncc(C)c(OC)c3C)nc2c1 (stereo not drawn) [Omeprazole]	Only one component
